The values that follow come from US7635663B2, “Method for thinning fruit blossoms using eugenol” (The United States of America as represented by the …, priority 2006, dated 2009).

Like-named read-outs stand apart in the source and are kept apart here.

Assay [1] has as its system 'Redhaven' on Lovell peach. Put plainly: Peach blossom thinning with different thinning agents, mist blower back pack sprayer, 2004. The class given is in vivo, Prunus persica. Conditions: 2004. The procedure:
In 2004, fewer concentrations of eugenol were tested in comparison with other chemical blossom thinners in apple and peach. […] 2004 with a pressurized power mist blower back pack sprayer. Peach trees had been planted in April 1997 with a 3-m spacing between trees. Treatments included eugenol and Matran® each applied at 1, 2, 4, and 8%. […] Each tree was an experimental unit, buffer trees surrounded each treated tree, and there were 5 replications arranged in a completely randomized design.
Response variables included (1) percent flowers wilted 24 hr after application based on a 100 flower (peach) or flower cluster (apple) sample per tree; (2) number apple fruit retained after June drop from the same 100-flower sample per tree; (3) number and weight of fruit per tree at harvest by size category; (4) visual estimation from two people of foliar and shoot damage. Four branches per tree, each with 25 flowers, were measured; two branches opposite each other were perpendicular to the drive alley and the other two branches were opposite each other and parallel to the drive alley.

Assay [2] has as its system 'Bisbee Spur Delicious' on MM.111 apple trees. Put plainly: Apple blossom thinning with eugenol and ATS, 2004. The class given is in vivo, Malus domestica. The procedure: Each tree was an experimental unit, surrounded by buffer trees, with 4 single tree replications arranged in a completely randomized design.
Four branches per tree, each with 25 flowers, were measured; two branches opposite each other were perpendicular to the drive alley and the other two branches were opposite each other and parallel to the drive alley.

Assay [3] has as its system 'Gala' on M.26 apple trees. The format is in vivo, Malus domestica. Particulars: 2005; for Fruit (no./tree) / Fruit weight (kg/tree) / Individual fruit weight: Apple 'Gala'. The procedure:
On Apr. […] Treatments were arranged in 4-tree plots and there were 4 blocks containing all 8 treatments. Data was collected from 2 trees per plot, so each treatment was an average of 8 trees. Data was analyzed by analysis of variance and Duncan's Multiple Range Test.

[4] abbreviates: Apple 'Bisbee', applied at 3.5 gal/A, 2004.

On to “ammonium thiosulfate [ATS, reference compound]”, for which, in assay [1], the “Fruit number per peach tree compared with control” value is “reduced”. For the same substance, in assay [1] (applied at 5.25 gal/A), the “Average fruit weight (g)” value was found to be 125 a g and the “Total yield per tree (no.)” value is recorded as 345 c no. Besides, in assay [2] (setting [4]), the “Average fruit weight (g)” value is listed as 153 a g and the “Total yield per tree (no.)” value was determined as 570 a no. In addition, in assay [2] (Apple 'Bisbee', applied at 3.5 gal/A, April 2004), the “Flower burn back (% of flowers injured)” value is on record as 50 a %. For the same substance, the Effect on yield result in assay [2] (Apple, 2004) is on record as “did not affect yield”. For the same substance, in assay [3] (thinner applied at 2%), the “Fruit (no./tree)” value worked out at 789 no./tree, the “Fruit weight (kg/tree)” value is on record as 83.3 kg/tree and the “Individual fruit weight” value amounted to 109 g. In assay [3] (thinner applied at 4%), the “Fruit (no./tree)” value worked out at 706 no./tree, the “Fruit weight (kg/tree)” value is recorded as 79.8 kg/tree and the “Individual fruit weight” value is reported as 120 g. Further, in assay [3] (Apple), the Performance as thinner entry is “not a good thinner”.
